Measured values as given in patent publication US12653799B2, “Compositions and methods for treating Alzheimer's disease” (ELEANORE BENNETT CHARITABLE TRUST #2, priority 2021, dated 2026).
“Also recorded” adds a separate entry of the source.

Experiments:
[1] = biological target: T1, PDK-Akt activation sequence (recombinant PDK-1 and Akt-1) (Homo sapiens, UniProt O15530); assay: In vitro drug screen of PS48-family compounds: PDK-1/Akt-1 activation sequence inhibited by Aβ42 ADDL oligomers (western readout); assay type: biochemical; conditions: for potency relative to PS48: based on Table 1 data; for GSK peptide and Akt T308 phosphorylations, Westerns of in vitro reaction mixture (FIG. 6A): compared to PS48; for fraction of control activity: compound 10 μM
T1 construct: purchased Amsbio
T1 sequence (O15530 1-556): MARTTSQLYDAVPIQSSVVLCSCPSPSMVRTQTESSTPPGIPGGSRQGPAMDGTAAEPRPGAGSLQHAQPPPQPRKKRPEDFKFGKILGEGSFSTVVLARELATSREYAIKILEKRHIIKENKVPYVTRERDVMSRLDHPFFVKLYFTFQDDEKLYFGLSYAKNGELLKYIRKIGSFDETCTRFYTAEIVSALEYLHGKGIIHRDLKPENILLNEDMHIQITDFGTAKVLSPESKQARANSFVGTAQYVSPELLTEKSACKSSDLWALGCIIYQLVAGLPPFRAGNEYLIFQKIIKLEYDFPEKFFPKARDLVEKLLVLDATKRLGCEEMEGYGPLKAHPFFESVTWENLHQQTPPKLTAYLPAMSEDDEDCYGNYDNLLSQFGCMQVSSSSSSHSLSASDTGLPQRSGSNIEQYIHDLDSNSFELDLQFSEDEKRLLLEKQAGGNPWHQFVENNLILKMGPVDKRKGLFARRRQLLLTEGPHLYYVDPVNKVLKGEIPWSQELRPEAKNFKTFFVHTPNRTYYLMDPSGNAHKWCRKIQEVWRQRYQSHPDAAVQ
Protocol: Incubation proceeded for 15 min. GSK-tide (Cell Signaling) was then added and the reaction allowed to continue for 20 min more before termination in sample buffer and fractionation on SDS gel. […] The in vitro results were validated using a cell culture-based assay, as above. […] Compound was added for 12 hrs. The cells were stimulated with insulin before harvest.
Where quantified, experiments were carried out in triplicate unless otherwise stated. Mean, standard errors and significance levels using Student's t-test were computed in Excel or Prism. […] Western signal intensities were all quantified by densitometry. […] Therefore, where both endpoints were evaluated, normalized values were both included in the quantification as indicated.
Drug screening experiments were performed using a focused library of novel compounds that were synthesized using PS48 as the starting scaffold. Two generations were created based on structure-activity relations (SAR) in an attempt to optimize performance.

[2] = system: Akt phosphorylation in Aβ42-expressing SH-SY5Y cells; assay: Akt activation in Aβ42-expressing cells (adenovirus/doxycycline, insulin-stimulated); assay type: cell-based; conditions: SH-SY5Y; for Phospho-Akt levels (T308 and S473 pooled) in cell-based model of Aβ toxicity, verification of analogs: compound 1 μM, insulin 40 nM last 20 minutes
Protocol: Adv TetOn and TRE-Aβ42 viruses were described previously (Magrane et al., 2005). […] Insulin (10 or 40 nM) was added in the last 20-30 min before harvest. […] Cell extracts were prepared in lysis buffer [20 mM Tris-HCl (pH 7.5), 150 mM NaCl, 1 mM EDTA, 1 mM Na3VO4, 1% NP-40, 10% Glycerol, 1 mM Na4P2O7, 1 μg/ml Leupeptin, 1 μg/ml Pepstatin A, 1 μg/ml Aprotinin, 0.1 mM phenylmethylsulfonyl fluoride, and protease inhibitor cocktail (Roche)] and were stored at −80° C. until use.
Whole-cell extracts were used directly for western blot analysis (20˜30 μg). Extracts from cultured cells prepared in lysis buffer, were diluted into Laemmli sample buffer, heated (95° C., 10 min), cleared by centrifugation, separated on SDS-PAGE and transferred to PVDF membrane (Immobilon-P; Millipore). Membranes were blocked in TBS containing 0.3% Tween-20 and 5% (wt/vol) non-fat dry milk. After incubation with primary antibodies (18 hr at 4° C. in buffer containing 5% bovine serum albumin (BSA) and 0.05% NaN3), blots were washed and incubated in horseradish peroxidase (HRP)-conjugated secondary antibodies (1:2000 dilution; Cell Signaling). Signals were detected using ECL reagents and quantified using a Kodak Image Station 4000R.
[…]. […] […]. […] […].

N2a neural cultures = assay: WST assay toxicity in N2a neural cultures; assay type: cell-based; conditions: result not shown
Description: . […]. Examples of in vitro assay performance are shown in FIG. 6A and FIG. 6B for compound 508-1-25 (generation 1) and compound 508-1-68 (generation 2). […] The new “hit” compounds also had no direct or indirect effects on potential downstream off-targets such as mTOR (protein levels and phosphorylation status, results not shown). […]

[3] = system: LTP in rat prefrontal cortical slices; assay: Long term potentiation (LTP) in acute prefrontal cortical slices perfused with Aβ42 oligomers; assay type: cell-based; conditions: Aβ42 ADDLs 0.5 μM; PS48 10 μM, at the 1-hour mark after Aβ42 application
Protocol: FIG. 3A. […] LTP was measured as % baseline excitatory postsynaptic potential (EPSP) amplitudes. […] Washout restored LTP (4).
Minor modifications were made to previous published procedures (Marshall et al., 2017; Molina-Luna et al., 2009). Deeply anesthetized rats (pentobarbital, 50 mg/kg) were decapitated, their brains quickly removed and immersed in cold (5-7° C.), oxygenated (95% O2/5% CO2) artificial cerebrospinal fluid (ACSF) containing: 126 mM NaCl, 3 mM KCl, 1.25 mM NaH2PO4, 1 mM MgSO4, 2 mM CaCl2, 26 mM NaHCO3, 10 mM dextrose. […] Control treatment was DMSO in ACSF (artificial cerebrospinal fluid, 20 μM bicuculline). Extracellular postsynaptic field potentials were recorded using an AxoClamp2B amplifier (Axon instruments) and EX1 differential amplifier (Dagan), and digitized at 10 kHz. Data was acquired using Igor Pro (Wave Metrics) and Neuromatic (neuromatic.thinkrandom.com). The stimulus intensity eliciting 50% of the maximum amplitude (˜32 μA) was used for all measurements before and after LTP induction. Baseline amplitudes were recorded for 20-30 minutes using single field stimuli applied every 30 sec to layer IV-V using concentric bipolar electrodes. Following a stable baseline period, LTP was induced by two sets of high-frequency stimulation (HFS) at 100 Hz, 60 μA (twice stimulus intensity), for 1 sec, 20 sec apart. Extracellular postsynaptic field potentials were measured from layer II-III using glass micropipettes filled with 0.9% NaCl. The amplitude rather than the slope of evoked FPs was used as a measure of the population excitatory synaptic response because in the neocortex the initial slope was contaminated by antidromic stimulation. LTP values were expressed as percentage of mean baseline EPSP±SEM. Paired two-tailed t-tests were used for statistical analysis.
LTP was measured as % baseline excitatory postsynaptic potential (EPSP) amplitudes. […] Washout restored LTP.

SH-SY5Y cells = assay: Cell viability, MTT assay, Aβ42-expressing SH-SY5Y cells; conditions: pretreatment before doxycycline; PS48 10 μM or insulin 100 nM; harvested at 48 hrs
Protocol: FIG. 2A. Cell viability as measured by MTT assay.
SH-SY5Y cells were washed twice in warm Dulbecco's phosphate-buffered saline (DPBS) and incubated in 1 ml DMEM containing 0.5 mg (3-[4,5-dimethylthiazol-2-yl]-2,5-diphenyltetrazolium bromide) (MTT or WST; Molecular Probes, Eugene, OR) for 2-3 h at 37° C. and 5% CO2. The medium was aspirated and the cells were washed twice with pre-warmed DPBS. The formazan salts were dissolved in 1 ml pure ethanol before use. Cells were homogenized by repetitive pipetting and centrifuged for 5 min at 4500 rpm, and the supernatant collected. Absorbance was read against an ethanol blank at 590 nm.

[4] = first generation PS48 analogs, Aβ42 ADDL 10 μM, Aβ 42 alone = 0.62 (.16), control normalized to 1.00

| Molecule | potency relative to PS48 [1] | GSK peptide and Akt T308 phosphorylations, Westerns of in vitro reaction mixture (FIG. 6A) [1] | fraction of control activity [1, 4] | Phospho-Akt levels (T308 and S473 pooled) in cell-based model of Aβ toxicity, verification of analogs [2] | also measured |
| --- | --- | --- | --- | --- | --- |
| O=C(/C=C(/CCc1ccc(Cl)cc1)c1ccccc1)NCCO [508-1-7] | increase in potency over PS48 | restored activation as well as or better than PS48 | 0.97 (.10) | – | – |
| O=C(O)CNC(=O)/C=C(/CCc1ccc(Cl)cc1)c1ccccc1 [508-1-25] | increase in potency over PS48 | restored activation as well as or better than PS48 | 0.99 (.07) | correcting the inhibition of Akt phosphorylation | Phospho-Akt levels (T308 and S473 pooled) in cell-based model of Aβ toxicity, verification of analogs ([2]; listed as 501-1-25): active; LD50 (N2a neural cultures): 350 µM |
| O=C(O)c1cn(Cc2ccc(OC(F)(F)F)cc2)c2ccccc12 [508-1-31] | increase in potency over PS48 | – | 0.95 (.11) | – | – |
| COC(=O)CNC(=O)/C=C(\CCc1ccc(Cl)cc1)c1ccccc1 [508-1-68] | increase in potency over PS48 | restored activation as well as or better than PS48 | – | correcting the inhibition of Akt phosphorylation; also recorded: active | fraction of control activity ([1]; second generation PS48 analogs, Aβ 42 alone = 0.72 (.05)): 1.02 (.06) |
| O=C(O)/C=C(\CCc1ccc(Cl)cc1)c1ccccc1 [PS47, (E)-5-(4-chlorophenyl)-3-phenylpent-2-enoic acid] | – | – | – | – | LTP (% baseline EPSP amplitude) inhibited by Aβ42 oligomers [3]: no effect |
| insulin: Human insulin, recombinant | – | – | – | – | cell viability (MTT) of amyloid-bearing cells (SH-SY5Y cells): reverted cells to basal condition or better; Akt activation (pT308) in β-amyloid-expressing cells ([2]; PS48 1 μM or insulin 100 nM added 2 hrs before doxycycline, insulin 40 nM 20 min prior to harvest): restored basal Akt activation levels |
